Consider 10 compounds from ChEMBL document CHEMBL3882241, “Compounds inhibiting the binding of sap for treating osteoarthritis” (2006).

In experiment [1] the target is Serum amyloid P-component (Homo sapiens) (UniProt P02743). Description: Inhibition of calcium dependent [125I]serum amyloid P-component (unknown origin) binding to immobilized Neisseria meningitidis at 2 uM incubated for 2 hrs by fluorescence/electron microscopy relative to control.
Experiment [2] shares this target. Put plainly: Inhibition of calcium dependent [125I]serum amyloid P-component (unknown origin) binding to immobilized chicken erythrocyte native long chromatin at 2 uM incubated for 2 hrs by gamma counting relative to control.
The target is the same in experiment [3]. Put plainly: Inhibition of calcium dependent [125I]serum amyloid P-component (unknown origin) binding to immobilized chicken erythrocyte native long chromatin at 200 uM incubated for 2 hrs by gamma counting relative to control.
Experiment [4] has the same target. Description: Inhibition of calcium dependent [125I]serum amyloid P-component (unknown origin) binding to immobilized influenza virus A/Shanghai/24/90 at 2 uM incubated for 2 hrs by fluorescence/electron microscopy relative to control.
The target is the same in experiment [5]. Put plainly: Inhibition of calcium dependent [125I]serum amyloid P-component (unknown origin) binding to immobilized influenza virus A/Shanghai/24/90 at 200 uM incubated for 2 hrs by fluorescence/electron microscopy relative to control.
Experiment [6] has the same target. Put plainly: Inhibition of calcium dependent [125I]serum amyloid P-component (unknown origin) binding to immobilized Neisseria meningitidis at 20 uM incubated for 2 hrs by fluorescence/electron microscopy relative to control.
Experiment [7] shares this target. Description: Inhibition of calcium dependent [125I]serum amyloid P-component (unknown origin) binding to immobilized Neisseria meningitidis at 200 nM incubated for 2 hrs by fluorescence/electron microscopy relative to control.
For experiment [8] the target is unchanged. Put plainly: Inhibition of calcium dependent [125I]serum amyloid P-component (unknown origin) binding to immobilized chicken erythrocyte native long chromatin at 20 uM incubated for 2 hrs by gamma counting relative to control.
Experiment [9] has the same target. Put plainly: Inhibition of calcium dependent [125I]serum amyloid P-component (unknown origin) binding to immobilized influenza virus A/Shanghai/24/90 at 2 mM incubated for 2 hrs by fluorescence/electron microscopy relative to control.
Experiment [10] shares this target. Description: Inhibition of calcium dependent [125I]serum amyloid P-component (unknown origin) binding to immobilized Neisseria meningitidis at 2 mM incubated for 2 hrs by fluorescence/electron microscopy relative to control.
For experiment [11] the target is unchanged. Description: Inhibition of calcium dependent [125I]serum amyloid P-component (unknown origin) binding to immobilized influenza virus A/Shanghai/24/90 at 20 uM incubated for 2 hrs by fluorescence/electron microscopy relative to control.
The target is the same in experiment [12]. Description: Inhibition of calcium dependent [125I]serum amyloid P-component (unknown origin) binding to immobilized Neisseria meningitidis at 200 uM incubated for 2 hrs by fluorescence/electron microscopy relative to control.
Experiment [13] has the same target. Description: Inhibition of calcium dependent [125I]serum amyloid P-component (unknown origin) binding to immobilized influenza virus A/Shanghai/24/90 at 200 nM incubated for 2 hrs by fluorescence/electron microscopy relative to control.
Experiment [14] has the same target. Put plainly: Inhibition of calcium dependent [125I]serum amyloid P-component (unknown origin) binding to immobilized chicken erythrocyte native long chromatin at 200 nM incubated for 2 hrs by gamma counting relative to control.
The target is the same in experiment [15]. Description: Inhibition of calcium dependent [125I]serum amyloid P-component (unknown origin) binding to immobilized chicken erythrocyte native long chromatin at 2 mM incubated for 2 hrs by gamma counting relative to control.

Serum amyloid P-component (Homo sapiens), sequence (P02743 whole entry): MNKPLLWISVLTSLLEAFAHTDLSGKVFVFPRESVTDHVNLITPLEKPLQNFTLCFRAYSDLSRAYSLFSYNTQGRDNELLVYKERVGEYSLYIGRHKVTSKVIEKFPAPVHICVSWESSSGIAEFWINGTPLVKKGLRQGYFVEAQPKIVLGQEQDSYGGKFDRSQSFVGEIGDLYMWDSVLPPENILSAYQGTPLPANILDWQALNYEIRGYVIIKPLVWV

On to `O=C(O)[C@H]1CCCN1C(=O)Cc1cc(O)c(CC(=O)N2CCC[C@@H]2C(=O)O)cc1O`, for which the inhibition (in general, the relative decrease from the control value, in per cent) in experiment [1] was determined as 76%; in experiment [2], 45%; in [3] it was 88%; in [4], 57%; in [5], 89%; in experiment [6], 95%. Also, the inhibition was found to be 1% in experiment [7]; 78% in experiment [8]; 89% in experiment [9]; 100% in experiment [10]; 80% in [11]; 100% in experiment [12]. The results for the inhibition in experiment [13], in [14] and in [15] were 24%, 0% and 97%, respectively.

For the compound `NCCOP(=O)(O)O`, the inhibition in [1] came to 18%; in experiment [2] it was 9%; in [3], 59%; in experiment [4], 8%; in experiment [5], 51%; in experiment [6] it was 32%. Besides, the inhibition was 7% in [7]; 36% in experiment [8]; 69% in experiment [9]; 95% in [10]; 42% in [11]; 41% in [12]. Moreover, the inhibition amounted to 1% in [13], 3% in [14] and 94% in [15].

Consider `O=C(O)[C@H]1CCCN1C(=O)Cc1ccc(CC(=O)N2CCC[C@@H]2C(=O)O)cc1`, for which the inhibition in [1] came to 64%; in experiment [2], 19%; in [3] it was 66%; in experiment [4], 65%; in [5] it was 89%; in [6], 73%. In addition, the inhibition in experiment [7] worked out at 7%; in [8], 39%; in experiment [9] it was 89%; in experiment [10], 100%; in [11] it was 85%; in [12] it was 100%. The values for the inhibition in [13], in [14] and in experiment [15] were 37%, 4% and 92%, respectively.

With `O=C(O)[C@H]1CCCN1C(=O)Cc1ccc(CC(=O)N2CCC[C@@H]2C(=O)O)c2ccccc12`, the inhibition in experiment [1] was determined as 69%; in experiment [2], 35%; in experiment [3], 96%; in experiment [4] it was 64%; in [5], 94%; in experiment [6], 89%. Also, the inhibition amounted to 13% in [7]; 77% in [8]; 98% in [9]; 100% in [10]; 95% in experiment [11]; 100% in experiment [12]. The inhibition in experiment [13] was found to be 4%; in experiment [14], 15%; in experiment [15], 100%.

For the compound `O=C(O)[C@H]1CCCN1C(=O)[C@H]1CC[C@@H](C(=O)N2CCC[C@@H]2C(=O)O)CC1`, the inhibition amounted to 73% in experiment [1]; 35% in experiment [2]; 94% in [3]; 76% in experiment [4]; 89% in [5]; 93% in experiment [6]. For the same compound, the inhibition in [7] is 31%; in [8] it was 67%; in experiment [9], 92%; in experiment [10], 100%; in experiment [11] it was 83%; in experiment [12], 100%. Besides, the inhibition in experiment [13] stood at 0%; in experiment [14], 1%; in [15] it was 100%.

Consider `O=C(O)[C@H]1CCCN1C(=O)COc1ccc(OCC(=O)N2CCC[C@@H]2C(=O)O)cc1`, for which the inhibition in experiment [1] was determined as 65%; in experiment [2], 36%; in experiment [3], 75%; in experiment [4] it was 77%; in experiment [5], 84%; in experiment [6], 74%. In addition, the inhibition in [7] is 0%; in experiment [8] it was 56%; in [9], 87%; in experiment [10], 100%; in experiment [11], 82%; in experiment [12], 65%. Also, the inhibition was 3% in experiment [13], 1% in [14] and 91% in [15].

For the compound `COc1cccc(OCC(=O)N2CCC[C@@H]2C(=O)O)c1OCC(=O)N1CCC[C@@H]1C(=O)O`, the inhibition in experiment [1] came to 74%; in experiment [3], 96%; in experiment [4] it was 52%; in [5] it was 77%; in experiment [6] it was 92%; in experiment [7], 19%. Moreover, the inhibition stood at 75% in [8]; 89% in [9]; 100% in experiment [10]; 62% in experiment [11]; 93% in experiment [12]; 16% in [13]. The inhibition in experiment [14] came to 11%; in experiment [15], 100%.

Take `O=C(O)[C@H]1CCCN1C(=O)Cc1cccc(CC(=O)N2CCC[C@@H]2C(=O)O)c1`: the inhibition was 64% in [1]; 18% in experiment [2]; 94% in experiment [3]; 68% in experiment [4]; 77% in experiment [5]; 92% in experiment [6]. For the same compound, the inhibition in experiment [7] came to 28%; in experiment [8] it was 56%; in experiment [9] it was 82%; in experiment [10] it was 100%; in experiment [11], 73%; in [12], 100%. Further, the inhibition in experiment [13] is 25%; in experiment [14] it was 0%; in experiment [15], 98%.

In the case of `Cc1c(OCC(=O)N2CCC[C@@H]2C(=O)O)cccc1OCC(=O)N1CCC[C@@H]1C(=O)O`, the inhibition was 64% in experiment [1]; 22% in experiment [2]; 95% in experiment [3]; 65% in experiment [4]; 81% in experiment [5]; 93% in experiment [6]. Moreover, the inhibition in experiment [7] is 1%; in [8], 65%; in experiment [9] it was 85%; in [10], 100%; in experiment [11], 81%; in [12] it was 100%. Also, the inhibition in experiment [13] is 24%; in [14] it was 0%; in [15], 98%.

As for `O=C(O)[C@H]1CCCN1C(=O)COc1ccccc1OCC(=O)N1CCC[C@@H]1C(=O)O`, the inhibition in experiment [1] was 77%; in experiment [2] it was 34%; in experiment [3], 89%; in experiment [4] it was 68%; in experiment [5] it was 93%; in [6], 87%. Also, the inhibition turned out to be 18% in [7]; 77% in [8]; 94% in [9]; 100% in experiment [10]; 88% in [11]; 100% in experiment [12]. Further, the inhibition was determined as 44% in [13], 7% in [14] and 96% in experiment [15].
